Data on 23 molecules can be found in patent US20100256183A1, “FUNGICIDAL 2-ALKYLTHIO-2-QUINOLINYLOXY-ACETAMIDE DERIVATIVES” (priority 2007, published 2010).

Like-named read-outs stand apart in the source and are kept apart here. Bounds are passed on as bounds.

One test deals with Plasmopara viticola. Nature of the test: Leaf disk assay, Plasmopara viticola (downy mildew of grapevine). Type of test: in vivo. Conditions: foliar, 168 h, read-out: control of fungal infection.
The test system of another test is Pythium ultimum. Nature of the test: Pythium ultimum (damping off) growth inhibition in potato dextrose broth, photometric. Type of test: cell-based. As to conditions: Globisporangium ultimum, read-out: control of fungal infection.
The subject of another test is Septoria nodorum. Nature of the test: Leaf disk assay, Septoria nodorum (wheat glume blotch). As to conditions: for pest or weed control at 200 ppm: Parastagonospora nodorum, foliar, 96 h, read-out: control of fungal infection. Type of test: in vivo.
Test [1] deals with Erysiphe graminis f.sp. tritici. Nature of the test: Leaf disk assay, Erysiphe graminis f.sp. tritici (wheat powdery mildew). Type of test: in vivo. As to conditions: Blumeria graminis, foliar, 96 h, read-out: control of fungal infection.
For a further test, the system named is Phytophthora infestans. Nature of the test: whole plant or invertebrate. Type of test: in vivo. As to conditions: in Solanum lycopersicum, foliar, 96 h, read-out: control of fungal infection.
The next test deals with Pyricularia oryzae. Nature of the test: whole plant or invertebrate. Type of test: in vivo. Conditions: foliar, 96 h, read-out: control of fungal infection.
Where [2] appears, read: 200 ppm, wheat leaf segments, preventive, four days after inoculation.
Where [3] appears, read: 200 ppm, grapevine leaf disks, preventive, seven days after inoculation.
[4] abbreviates: 20 ppm, inhibition of growth after 48 hours at 24° C.
[5] abbreviates: 20 ppm, preventive, four days after inoculation.
Setting [6] is: 60 ppm, preventive, four days after inoculation.
The mark [7] stands for this setting: 200 ppm, preventive, four days after inoculation.

For `CCOCC#CC(C)(C)NC(=O)C(Oc1cc(C)c2ncc(Br)cc2c1)SC` (centres unmarked) [22(4), 2-(3-Bromo-8-methyl-quinolin-6-yloxy)-N-(4-ethoxy-1,1-dimethyl-but-2-ynyl)-2-methylsulfanyl-acetamide], the pest or weed control at 200 ppm in the test on Plasmopara viticola is at least 60%.
Turning to `C=CCOCC#CC(C)(C)NC(=O)C(Oc1cc(C)c2ncc(Br)cc2c1)SC` (centres unmarked) [28(4), N-(4-Allyloxy-1,1-dimethyl-but-2-ynyl)-2-(3-bromo-8-methyl-quinolin-6-yloxy)-2-methylsulfanyl-acetamide], the inhibition of growth at 20 ppm in the test with Pythium ultimum (48 h) is at least 60%. Moreover, the pest or weed control at 200 ppm (in the test with Septoria nodorum; in test [1]; in the test with Phytophthora infestans) was at least 60% in each case.
In the case of `CSC(Oc1cc(C)c2ncc(Br)cc2c1)C(=O)NC(C)(C)C#CCO` (centres unmarked) [30(4), 2-(3-Bromo-8-methyl-quinolin-6-yloxy)-N-(4-hydroxy-1,1-dimethyl-but-2-ynyl)-2-methylsulfanyl-acetamide], the inhibition of growth at 20 ppm with Pythium ultimum (48 h) was at least 60%. The pest or weed control at 200 ppm (with Septoria nodorum; in test [1]; with Pyricularia oryzae; in the test on Phytophthora infestans) was at least 60% throughout.
On to `CC#CC(C)(CC)NC(=O)C(Oc1cc(C)c2ncc(Br)cc2c1)SC` (centres unmarked) [8(4), 2-(3-Bromo-8-methyl-quinolin-6-yloxy)-N-(1-ethyl-1-methyl-but-2-ynyl)-2-methylsulfanyl-acetamide], for which the pest or weed control at 200 ppm in the test with Septoria nodorum and in the test on Plasmopara viticola was at least 60% in each case.
`COCCC#CC(C)(C)NC(=O)C(Oc1cc(C)c2ncc(Br)cc2c1)SC` (centres unmarked) [5(4), 2-(3-Bromo-8-methyl-quinolin-6-yloxy)-N-(5-methoxy-1,1-dimethyl-pent-2-ynyl)-2-methylsulfanyl-acetamide]: in the test with Pythium ultimum (48 h), the inhibition of growth at 20 ppm was at least 60%. Moreover, the pest or weed control at 200 ppm (in test [1]; in the test with Plasmopara viticola; in the test on Phytophthora infestans) was at least 60% in each case.
Turning to `COCC#CC(C)(C)NC(=O)C(Oc1cc(C)c2ncc(Br)cc2c1)SC` (centres unmarked) [3(4), 2-(3-Bromo-8-methyl-quinolin-6-yloxy)-N-(4-methoxy-1,1-dimethyl-but-2-ynyl)-2-methylsulfanyl-acetamide], the pest or weed control at 200 ppm (in the test with Septoria nodorum; in test [1]; in the test on Plasmopara viticola; in the test on Pyricularia oryzae; in the test with Phytophthora infestans) was at least 60% each time.
For the molecule `C#CC(C)(NC(=O)C(Oc1cc(C)c2ncc(Br)cc2c1)SC)C(C)C` (centres unmarked) [12(4), 2-(3-Bromo-8-methyl-quinolin-6-yloxy)-N-(1-isopropyl-1-methyl-prop-2-ynyl)-2-methylsulfanyl-acetamide], the pest or weed control at 200 ppm with Septoria nodorum (setting [2]) and in the test with Plasmopara viticola (setting [3]) was at least 60% throughout.
For the molecule `C#CCOCC#CC(C)(C)NC(=O)C(Oc1cc(C)c2ncc(Br)cc2c1)SC` (centres unmarked) [29(4), 2-(3-Bromo-8-methyl-quinolin-6-yloxy)-N-(1,1-dimethyl-4-prop-2-ynyloxy-but-2-ynyl)-2-methylsulfanyl-acetamide], the pest or weed control at 200 ppm (in test [1]; in the test on Pyricularia oryzae) was at least 60% throughout.
With `COCCOCOCC#CC(C)(C)NC(=O)C(Oc1cc(C)c2ncc(Br)cc2c1)SC` (centres unmarked) [32(4), 2-(3-Bromo-8-methyl-quinolin-6-yloxy)-N-[4-(2-methoxy-ethoxymethoxy)-1,1-dimethyl-but-2-ynyl]-2-methylsulfanyl-acetamide], the pest or weed control at 200 ppm (in test [1]; in the test on Plasmopara viticola; in the test on Phytophthora infestans) was at least 60% throughout.
For the molecule `C#CC(C)(C)NC(=O)C(Oc1cc(CC)c2ncc(Br)cc2c1)SC` (centres unmarked) [33(4), 2-(3-Bromo-8-ethyl-quinolin-6-yloxy)-N-(1,1-dimethyl-prop-2-ynyl)-2-methylsulfanyl-acetamide], the inhibition of growth at 20 ppm with Pythium ultimum (setting [4]) is at least 60%. The pest or weed control at 200 ppm (with Septoria nodorum (setting [2]); in test [1] (setting [2]); with Plasmopara viticola (setting [3]); with Pyricularia oryzae) was at least 60% in each case.
As for `COCC#CC(C)(C)NC(=O)C(Oc1cc(C)c2ncc(Cl)cc2c1)SC` (centres unmarked) [19(4), 2-(3-Chloro-8-methyl-quinolin-6-yloxy)-N-(4-methoxy-1,1-dimethyl-but-2-ynyl)-2-methylsulfanyl-acetamide], the inhibition of growth at 20 ppm in the test on Pythium ultimum (48 h) is at least 60%. In addition, the pest or weed control at 200 ppm (in test [1]; with Plasmopara viticola; in the test on Phytophthora infestans) was at least 60% each time.
With `COCOCC#CC(C)(C)NC(=O)C(Oc1cc(C)c2ncc(Br)cc2c1)SC` (centres unmarked) [31(4), 2-(3-Bromo-8-methyl-quinolin-6-yloxy)-N-(4-methoxymethoxy-1,1-dimethyl-but-2-ynyl)-2-methylsulfanyl-acetamide], the inhibition of growth at 20 ppm in the test on Pythium ultimum (48 h) is at least 60%. Moreover, the pest or weed control at 200 ppm (in test [1]; with Phytophthora infestans) was at least 60% throughout.
Consider `C#CC(C)(CC)NC(=O)C(Oc1cc(C)c2ncc(Br)cc2c1)SC` (centres unmarked) [7(4), 2-(3-Bromo-8-methyl-quinolin-6-yloxy)-N-(1-ethyl-1-methyl-prop-2-ynyl)-2-methylsulfanyl-acetamide], for which the pest or weed control at 200 ppm (with Septoria nodorum (setting [2]); in test [1] (setting [2]); in the test with Plasmopara viticola (setting [3]); with Pyricularia oryzae) was at least 60% each time.
In the case of `C#CC(C)(C)NC(=O)C(Oc1cc(C)c2ncc(Cl)cc2c1)SC` (centres unmarked) [Compound 17(4), 2-(3-Chloro-8-methyl-quinolin-6-yloxy)-N-(1,1-dimethyl-prop-2-ynyl)-2-methylsulfanyl-acetamide], the inhibition of growth at 20 ppm in the test on Pythium ultimum (setting [4]) was at least 60%. The “Efficacy (%)” value in the test with Septoria nodorum (setting [5]) is given as 80%; with Septoria nodorum (setting [6]) it was 100%; in the test on Septoria nodorum (setting [7]), 100%. The pest or weed control at 200 ppm (with Septoria nodorum (setting [2]); in test [1] (setting [2]); in the test on Plasmopara viticola (setting [3]); with Pyricularia oryzae; in the test on Phytophthora infestans) was at least 60% in each case.
Turning to `C#CC(C)(C)NC(=O)C(Oc1ccc2ncc(Cl)cc2c1)SC` (centres unmarked) [Compound 1(23), reference compound], the “Efficacy (%)” value with Septoria nodorum (setting [5]), in the test on Septoria nodorum (setting [6]) and in the test on Septoria nodorum (setting [7]) was 0% throughout.
Regarding `CC#CC(C)(C)NC(=O)C(Oc1cc(CC)c2ncc(Br)cc2c1)SC` (centres unmarked) [34(4), 2-(3-Bromo-8-ethyl-quinolin-6-yloxy)-N-(1,1-dimethyl-but-2-ynyl)-2-methylsulfanyl-acetamide], the inhibition of growth at 20 ppm in the test with Pythium ultimum (48 h) was at least 60%. The pest or weed control at 200 ppm (in test [1]; in the test with Plasmopara viticola) was at least 60% throughout.
With `CC#CC(C)(C)NC(=O)C(Oc1cc(C)c2ncc(Cl)cc2c1)SC` (centres unmarked) [18(4), 2-(3-Chloro-8-methyl-quinolin-6-yloxy)-N-(1,1-dimethyl-but-2-ynyl)-2-methylsulfanyl-acetamide], the inhibition of growth at 20 ppm with Pythium ultimum (48 h) was at least 60%. Moreover, the pest or weed control at 200 ppm (in the test with Septoria nodorum; in test [1]; in the test with Plasmopara viticola; with Pyricularia oryzae; with Phytophthora infestans) was at least 60% in each case.
With `CCC#CC(C)(C)NC(=O)C(Oc1cc(C)c2ncc(Br)cc2c1)SC` (centres unmarked) [4(4), 2-(3-Bromo-8-methyl-quinolin-6-yloxy)-N-(1,1-dimethyl-pent-2-ynyl)-2-methylsulfanyl-acetamide], in the test with Plasmopara viticola, the pest or weed control at 200 ppm was at least 60%.
For `CCC#CC(C)(C)NC(=O)C(Oc1cc(C)c2ncc(Cl)cc2c1)SC` (centres unmarked) [20(4), 2-(3-Chloro-8-methyl-quinolin-6-yloxy)-N-(1,1-dimethyl-pent-2-ynyl)-2-methylsulfanyl-acetamide], in the test on Phytophthora infestans, the pest or weed control at 200 ppm was at least 60%.
Consider `CSC(Oc1cc(C)c2ncc(Br)cc2c1)C(=O)NC(C)(C)C#CC(C)(O)CCl` (centres unmarked) [27(4), 2-(3-Bromo-8-methyl-quinolin-6-yloxy)-N-(5-chloro-4-hydroxy-1,1,4-trimethyl-pent-2-ynyl)-2-methylsulfanyl-acetamide], for which the pest or weed control at 200 ppm (in test [1]; in the test with Plasmopara viticola) was at least 60% each time.
Take `COCCC#CC(C)(C)NC(=O)C(Oc1cc(C)c2ncc(Cl)cc2c1)SC` (centres unmarked) [21(4), 2-(3-Chloro-8-methyl-quinolin-6-yloxy)-N-(5-methoxy-1,1-dimethyl-pent-2-ynyl)-2-methylsulfanyl-acetamide]: the inhibition of growth at 20 ppm with Pythium ultimum (48 h) is at least 60%. Besides, the pest or weed control at 200 ppm (in test [1]; in the test with Plasmopara viticola; with Phytophthora infestans) was at least 60% throughout.
In the case of `CSC(Oc1cc(C)c2ncc(Br)cc2c1)C(=O)NC(C)(C)C#C/C=C/CO` (centres unmarked) [24(4), 2-(3-Bromo-8-methyl-quinolin-6-yloxy)-N-((E)-6-hydroxy-1,1-dimethyl-hex-4-en-2-ynyl)-2-methylsulfanyl-acetamide], the inhibition of growth at 20 ppm in the test with Pythium ultimum (setting [4]) is at least 60%. Besides, the pest or weed control at 200 ppm (in test [1] (setting [2]); with Plasmopara viticola (setting [3]); in the test on Phytophthora infestans) was at least 60% throughout.
On to `COCCOCCC#CC(C)(C)NC(=O)C(Oc1cc(C)c2ncc(Br)cc2c1)SC` (centres unmarked) [25(4), 2-(3-Bromo-8-methyl-quinolin-6-yloxy)-N-[5-(2-methoxy-ethoxy)-1,1-dimethyl-pent-2-ynyl]-2-methylsulfanyl-acetamide], for which, in the test on Pythium ultimum (48 h), the inhibition of growth at 20 ppm is at least 60%. Besides, the pest or weed control at 200 ppm in the test on Plasmopara viticola and with Phytophthora infestans was at least 60% throughout.
